Measured values: patent US9353107B2 (Aurigene Discovery Technologies Limited, priority 2012, dated 2016)
Structures can show the parent of a compound that is named as a salt.

Target: T1, recombinant human ALK enzyme (ALK WT) (Homo sapiens, UniProt Q9UM73)
T1 construct: purchased Carna Biosciences 08-518
Assay: ALK WT cell free enzymatic assay (TR-FRET)
Assay type: biochemical
Settings: 1 μM ATP; for IC50: 10 point dose response; for inhibition at 0.1 µM: compound at 100 nM; for inhibition at 0.1 µM / inhibition at 1 µM: 30 min pre-incubation; for inhibition at 1 µM: compound at 1 μM
Description: ALK Wild Type (WT) The ALK WT cell free assay was set up to evaluate the effects of these compounds as inhibitors of ALK enzyme. The enzymatic assay was standardized using recombinant human ALK enzyme (Cat#08-518) from Carna Biosciences using Ultra Light Poly GT (Cat# TRF 0100D) from Perkin Elmer as a substrate. TR-FRET (Time resolved fluorescence resonance energy transfer) detection technology was used for the read out. The final assay conditions were 50 mM HEPES pH 7.1, 10 mM MgCl2, 2 mM MnCl2, 0.01% BSA, 2.5 mM DTT, 0.1 mM Na3 VO4, 40 nM Ultra Light Poly GT, 2.5 ng ALK WT enzyme, 1 μM ATP and 125 nM Lance Eu-W1024 labeled anti phospho tyrosine antibody (Cat# AD0203, Perkin Elmer) in 384 well format. The assay reaction time with the substrate was 30 minutes after which the antibody detection mix is added. The TR-FRET signal (Excitation at 340 nm, Emission at 615 nm and 665 nm) was read with 50 μs delay time on Victor^3 V fluorimeter. The data is calculated using the ratio of reading at 665 nM to 615 nM. The final concentration of DMSO was 1% in the assay. Compounds were screened at 100 nM and 1 μM concentrations with pre-incubation of the enzymes with compound for 30 minutes. Each individual IC50 was determined using 10 point dose response curve generated by GraphPad Prism software Version 4 (San Diego, Calif., USA) using non linear regression curve fit for sigmoidal dose response (variable slope). Percentage inhibition at concentrations of 100 nM and 1.0 μM are given in table along with the IC50 (nM) details for selected examples.

T1 sequence (Q9UM73 1058-1620 limits assumed): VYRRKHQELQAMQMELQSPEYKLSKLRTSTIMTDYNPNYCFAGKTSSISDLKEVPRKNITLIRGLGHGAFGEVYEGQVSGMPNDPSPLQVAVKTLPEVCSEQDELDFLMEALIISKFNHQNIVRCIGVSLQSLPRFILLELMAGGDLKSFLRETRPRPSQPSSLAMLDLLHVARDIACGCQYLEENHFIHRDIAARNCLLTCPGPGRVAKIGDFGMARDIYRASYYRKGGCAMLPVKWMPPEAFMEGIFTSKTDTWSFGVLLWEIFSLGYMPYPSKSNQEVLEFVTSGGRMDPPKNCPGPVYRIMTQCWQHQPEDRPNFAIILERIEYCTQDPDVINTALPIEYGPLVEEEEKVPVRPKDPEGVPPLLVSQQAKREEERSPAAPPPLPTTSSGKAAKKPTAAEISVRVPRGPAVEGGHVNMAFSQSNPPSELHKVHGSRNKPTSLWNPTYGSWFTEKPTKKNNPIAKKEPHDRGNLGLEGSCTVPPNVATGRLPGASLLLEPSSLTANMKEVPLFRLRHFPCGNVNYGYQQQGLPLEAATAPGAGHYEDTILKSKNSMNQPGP

Row | Structure (SMILES) | IC50 [nM] | inhibition at 0.1 µM [%] | inhibition at 1 µM [%]
1 | CS(=O)(=O)Nc1cc(-c2cnc3[nH]cc(-c4cnn(Cc5cc(F)cc(F)c5)c4)c3c2)ccc1F [Example 79, N-(5-(3-(1-(3,5-difluorobenzyl)-1H-pyrazol-4-yl)-1H-pyrrolo[2,3-b]pyridin-5-yl)-2-fluorophenyl) methanesulfonamide] | < 50 | 101 | 102
2 | COc1ccc(-c2cnc3[nH]cc(-c4cnn(Cc5cccnc5)c4)c3c2)cc1NS(C)(=O)=O [Example 72, N-(2-methoxy-5-(3-(1-(pyridin-3-ylmethyl)-1H-pyrazol-4-yl)-1H-pyrrolo[2,3-b]pyridin-5-yl)phenyl)methanesulfonamide] | 50 to 250 | 76 | 100
3 | C[C@H](O)CN1CCCN(c2ccc(-c3cnc4[nH]cc(-c5cnn(Cc6cccc(F)c6)c5)c4c3)cc2)CC1 [Example 164, (S)-1-(4-(4-(3-(1-(3-fluorobenzyl)-1H-pyrazol-4-yl)-1H-pyrrolo[2,3-b]pyridin-5-yl)phenyl)-1,4-diazepan-1-yl)propan-2-ol] | < 50 | 96 | 99
4 | CS(=O)(=O)Nc1cc(-c2cnc3[nH]cc(-c4cnn(Cc5cccc(F)c5)c4)c3c2)ccc1F [Example 78, N-(2-fluoro-5-(3-(1-(3-fluorobenzyl)-1H-pyrazol-4-yl)-1H-pyrrolo[2,3-b]pyridin-5-yl)phenyl) methanesulfonamide] | < 50 | 100 | 101
5 | Cc1nn(Cc2cccc(F)c2)c(C)c1-c1c[nH]c2ncc(-c3cccc(OC4CCNCC4)c3)cc12 [Example 96, 3-(1-(3-fluorobenzyl)-3,5-dimethyl-1H-pyrazol-4-yl)-5-(3-(piperidin-4-yloxy)phenyl)-1H-pyrrolo[2,3-b]pyridine] | < 50 | 70 | 100
6 | c1ccc(CCn2cc(-c3c[nH]c4ncc(-c5cccc(CC6CCNCC6)c5)cc34)cn2)cc1 [Example 98, 3-(1-phenethyl-1H-pyrazol-4-yl)-5-(3-(piperidin-4-ylmethyl)phenyl)-1H-pyrrolo[2,3-b]pyridine] | 50 to 250 | 24 | 95
7 | O=C(CC1CC1)N1CCN(c2ccc(-c3cnc4[nH]cc(-c5cnn(Cc6cccc(F)c6)c5)c4c3)cc2)CC1 [Example 124, 2-cyclopropyl-1-(4-(4-(3-(1-(3-fluorobenzyl)-1H-pyrazol-4-yl)-1H-pyrrolo[2,3-b]pyridin-5-yl)phenyl)piperazin-1-yl)ethanone] | > 250 | 17 | 86
8 | Cc1nn(Cc2cc(F)ccc2F)c(C)c1-c1c[nH]c2ncc(-c3ccc(N4CCNCC4)cc3)cc12 [Example 42, 3-(1-(2,5-difluorobenzyl)-3,5-dimethyl-1H-pyrazol-4-yl)-5-(4-(piperazin-1-yl)phenyl)-1H-pyrrolo[2,3-b]pyridine hydrochloride] | < 50 | 92 | 100
9 | CNS(=O)(=O)c1cc(-c2cnc3[nH]cc(-c4c(C)nn(Cc5cc(F)ccc5F)c4C)c3c2)ccc1OC [Example 20, 5-(3-(1-(2,5-difluorobenzyl)-3,5-dimethyl-1H-pyrazol-4-yl)-1H-pyrrolo[2,3-b]pyridin-5-yl)-2-methoxy-N-methylbenzenesulfonamide] | > 250 | 17 | 75
10 | Nc1cc(-c2cnc3[nH]cc(-c4cnn(Cc5cccc(F)c5)c4)c3c2)ccc1N1CCNCC1 [Example 105, 5-(3-(1-(3-fluorobenzyl)-1H-pyrazol-4-yl)-1H-pyrrolo[2,3-b]pyridin-5-yl)-2-(piperazin-1-yl) aniline] | < 50 | 98 | 100
11 | Fc1cc(F)cc(Cn2ccc(-c3c[nH]c4ncc(-c5ccc(N6CCNCC6)cc5)cc34)n2)c1 [Example 111, 3-(1-(3,5-difluorobenzyl)-1H-pyrazol-3-yl)-5-(4-(piperazin-1-yl)phenyl)-1H-pyrrolo[2,3-b]pyridine] | < 50 | 82 | 100
12 | Fc1cc(-c2cnc3[nH]cc(-c4cnn(CCc5ccccc5)c4)c3c2)ccc1C1CCNCC1 [Example 167, 5-(3-fluoro-4-(piperidin-4-yl)phenyl)-3-(1-phenethyl-1H-pyrazol-4-yl)-1H-pyrrolo[2,3-b]pyridine] | 50 to 250 | 69 | 97
13 | c1ccc(CCn2cc(-c3c[nH]c4ncc(-c5ccc(C6CCNCC6)cc5)cc34)cn2)cc1 [Example 88, 3-(1-phenethyl-1H-pyrazol-4-yl)-5-(4-(piperidin-4-yl)phenyl)-1H-pyrrolo[2,3-b]pyridine] | < 50 | 89 | 99
14 | COc1ccc(-c2cnc3[nH]cc(-c4ccn(Cc5cc(F)cc(F)c5)n4)c3c2)cc1NS(C)(=O)=O [Example 69, N-(5-(3-(1-(3,5-difluorobenzyl)-1H-pyrazol-3-yl)-1H-pyrrolo[2,3-b]pyridin-5-yl)-2-methoxyphenyl)methanesulfonamide] |  | 15 | 76
15 | COc1ccc(-c2cc3c(-c4c(C)nn(Cc5cc(F)cc(F)c5)c4C)c[nH]c3nc2C2CC2)cc1NS(C)(=O)=O [Example 27, N-(5-(6-cyclopropyl-3-(1-(3,5-difluorobenzyl)-3,5-dimethyl-1H-pyrazol-4-yl)-1H-pyrrolo[2,3-b]pyridin-5-yl)-2-methoxyphenyl)methanesulfonamide] |  | 9 | 8
16 | Fc1cccc(Cn2cc(-c3c[nH]c4ncc(-c5ccc(N6CCNCC6)cc5)cc34)cn2)c1 [Example 39, 3-(1-(3-fluorobenzyl)-1H-pyrazol-4-yl)-5-(4-(piperazin-1-yl)phenyl)-1H-pyrrolo[2,3-b]pyridine hydrochloride] | < 50 | 92 | 99
17 | c1cc(Cn2cc(-c3c[nH]c4ncc(-c5ccc(C6CCNCC6)cc5)cc34)cn2)ccn1 [Example 171, 5-(4-(piperidin-4-yl)phenyl)-3-(1-(pyridin-4-ylmethyl)-1H-pyrazol-4-yl)-1H-pyrrolo[2,3-b]pyridine] | 50 to 250 | 41 | 88
18 | Cc1nn(Cc2cccc(Cl)c2)c(C)c1-c1c[nH]c2ncc(-c3ccc(N4CCNCC4)cc3)cc12 [Example 47, 3-(1-(3-chlorobenzyl)-3,5-dimethyl-1H-pyrazol-4-yl)-5-(4-(piperazin-1-yl)phenyl)-1H-pyrrolo[2,3-b]pyridine hydrochloride] | < 50 | 90 | 100
19 | Cc1nn(Cc2cccc(F)c2)c(C)c1-c1c[nH]c2ncc(-c3ccc(OCCO)c(NS(C)(=O)=O)c3)cc12 [Example 24, N-(5-(3-(1-(3-fluorobenzyl)-3,5-dimethyl-1H-pyrazol-4-yl)-1H-pyrrolo[2,3-b]pyridin-5-yl)-2-(2-hydroxyethoxyl)phenyl)methanesulfonamide] | < 50 | 53 | 96
20 | COc1cc(-c2cnc3[nH]cc(-c4c(C)nn(Cc5cccc(F)c5)c4C)c3c2)ccc1N1CCNCC1 [Example 62, 3-(1-(3-fluorobenzyl)-3,5-dimethyl-1H-pyrazol-4-yl)-5-(3-methoxy-4-(piperazin-1-yl)phenyl)-1H-pyrrolo[2,3-b]pyridine hydrochloride] | < 50 | 87 | 100
21 | Cc1cccc(Cn2nc(C)c(-c3c[nH]c4ncc(-c5ccc(N6CCNCC6)cc5)cc34)c2C)c1 [Example 51, 3-(3,5-dimethyl-1-(3-methylbenzyl)-1H-pyrazol-4-yl)-5-(4-(piperazin-1-yl)phenyl)-1H-pyrrolo[2,3-b]pyridine hydrochloride] | < 50 | 84 | 100
22 | COc1cc(-c2cnc3[nH]cc(-c4cnn(Cc5cccc(F)c5)c4)c3c2)cnc1N [Example 81, 5-(3-(1-(3-fluorobenzyl)-1H-pyrazol-4-yl)-1H-pyrrolo[2,3-b]pyridin-5-yl)-3-methoxypyridin-2-amine] | < 50 | 94 | 96
23 | O=C(CC1CC1)N1CCN(c2ccc(-c3cnc4[nH]cc(-c5cnn(Cc6cccc(F)c6)c5)c4c3)cn2)CC1 [Example 160, 2-cyclopropyl-1-(4-(5-(3-(1-(3-fluorobenzyl)-1H-pyrazol-4-yl)-1H-pyrrolo[2,3-b]pyridin-5-yl)pyridin-2-yl)piperazin-1-yl)ethanone] | 50 to 250 | 20 | 84
24 | COc1ncc(-c2cnc3[nH]cc(-c4cnn(Cc5cccc(F)c5)c4)c3c2)cc1N [Example 65, 5-(3-(1-(3-fluorobenzyl)-1H-pyrazol-4-yl)-1H-pyrrolo[2,3-b]pyridin-5-yl)-2-methoxypyridin-3-amine] | < 50 | 97 | 100
